Measured values reported in ChEMBL document CHEMBL1649085.

How the values were obtained:
Format in all cases: ADME, organism-based
Plasma = test: Drug uptake in rat plasma at 10 mg/kg, po; set-up: dose 10 mg/kg, route oral; details: in vivo
[1] = AUC (0 to time) in rat at 10 mg/kg, po; set-up: dose 10 mg/kg, route oral; details: plasma
[2] = Oral bioavailability in rat at 10 mg/kg, po; details: in vivo
[3] = Tmax in rat at 10 mg/kg, po; set-up: dose 10 mg/kg, route oral; details: in vivo
[4] = Cmax in rat at 10 mg/kg, po; set-up: dose 10 mg/kg, route oral; details: in vivo
Brain = test: Drug uptake in rat brain at 10 mg/kg, po; set-up: dose 10 mg/kg, route oral; details: in vivo, read-out: Drug uptake
[5] = Ratio of drug level in brain to plasma in rat at 10 mg/kg, po; set-up: dose 10 mg/kg, route oral

Row | SMILES | concentration (Plasma) | AUC(0-t) [1] | bioavailability [2] | Tmax [3] | Cmax [4] | concentration (Brain) | BPR [5]
1 | Cc1c(OCc2cccc(-c3ccc(C(=O)O)cc3)c2)cc2c(c1C)C(=O)C(C1CCCC1)C2 (stereo not drawn) | 0.027 µM | 0.281 µM·h | 33% | 2 h | 0.097 µM | – | –
2 | O=C(O)c1cc(-c2cccc(COc3ccc4c(=O)n(C5CCCC5)sc4c3)c2)ccc1Cl | 1 µM | 43.3 µM·h | – | 1.83 h | 4.1 µM | 4.8 µM | 4.8
3 | O=C(O)c1cc(-c2cccc(COc3ccc4c(c3)CN(C3CCCC3)C4=O)c2)ccc1Cl | 12.3 µM | 106 µM·h | 40% | 1.33 h | 14.4 µM | 3.8 µM | 0.3
